Measurements published in patent US10568868B2, “Methods and compositions for treating metabolic reprogramming disorders” (THE JOHNS HOPKINS UNIVERSITY, priority 2015, dated 2020).

How the values were obtained:
[1] = In vitro plasma stability, pig plasma; format: in vitro ADME
[2] = In vitro plasma stability, mouse plasma; format: in vitro ADME, mice
[3] = In vitro plasma stability, human plasma; format: in vitro ADME
[4] = In vitro plasma stability, dog plasma; format: in vitro ADME
[5] = Pharmacokinetics of DON in swine plasma and CSF after i.v. infusion of DON, compound 14b or compound 47; format: in vivo; settings: for CSF-to-plasma ratio of DON: 60 min post-administration; for amount of DON delivered to the CSF relative to DON: CSF at 60 min post-dose
Procedure: Compound: Compound 47 was dissolved in a sterile saline containing 5% ethanol and 5% Tween 80 on the date of administration.
Swine: Swine studies were conducted under a protocol approved by the Johns Hopkins Animal Care and Use Committee. Adult, female Gottingen×Yucutan miniature swine (Massachusetts General Hospital, MA) were housed in Johns Hopkins University facilities accredited by the Association for Assessment and Accreditation of Laboratory Animal Care International in compliance with the Animal Welfare Act, Animal Welfare Regulations, and the Public Health Service Policy on the Humane Care and Use of Laboratory Animals. Animals were maintained on a 14-h light and 10-h dark schedule, provided ad libitum water and a commercial miniswine diet (Teklad, Madison, Wis.) with environmental enrichment (fruit/vegetables) twice daily.

[6] = In vitro plasma stability, monkey plasma; format: in vitro ADME, monkeys
CD4+ and CD8+ T cells [7] = assay: IFN-γ secretion of anti-CD3 stimulated splenocytes (ELISA); format: cell-based, C57BL/6 mice; settings: anti-CD3, 24 h; DON 5 μM; 2-DG 0.6 mM; Metformin 1 mM
CD4+ T cells = assay: Extracellular flux analysis (ECAR, OCR) of CD4+ T cells stimulated with anti-CD3/CD28; format: cell-based, 5C.C7 mice; settings: 2-DG 10 mM; Metformin 50 mM; DON 30 μM; after anti-CD3/CD28
Procedure: Extracellular flux analysis: Cells were initially plated to XF assay medium, modified DMEM (Seahorse Bioscience) containing 25 mM glucose, 2 mM L-glutamine, and 1 mM sodium pyruvate, and incubated in a non-CO2 incubator at 37° C. for 30 minutes. OCR and ECAR were measured at 37° C. in a XF96 Extracellular Flux Analyzer (Seahorse Bioscience) using manufacturer recommended protocols. After baseline measurements, OCR and ECAR were measured after sequentially adding anti-CD3/CD28 and metabolic reprogramming agents into each well to the indicated final concentrations using the included ports on the XF96 cartridges. All data were collected using the XF Reader software from Seahorse Bioscience.
OCR is an indicator of mitochondrial OXPHOS, and ECAR is predominantly a measure of lactic acid formed during glycolytic energy metabolism, and thus reflects overall glycolytic flux. Primary, naïve 5C.C7 CD4^+ T cells were incubated with pigeon cytochrome c (PCC) peptide for 48 hrs and then expanded and rested in IL-2 for an additional 5 days to generate previously activated CD4^+ cells. After measuring the baseline bioenergetics of these resting CD4^+ cells, cells were re-stimulated with anti-CD3/CD28 (FIG. 9A and FIG. 9B). […] Upon reaching the peak of glycolytic flux, metabolic reprogramming agents were administered to the cells. 2-DG is a glucose analog that inhibits hexokinase, the first enzyme in the glycolytic pathway (Rowe et al. (2013) Nature Medicine 19(4):488-493). […] Metformin is a commonly used oral hypoglycemic that activates AMPK, inhibits mitochondrial respiratory complex I and promotes fatty acid oxidation (Buzzai et al. (2007) Cancer Research 67(14):6745-6752; El-Mir et al. (2000) The Journal of Biological Chemistry 275(1):223-228).

CD4+ and CD8+ T cells [8] = assay: T cell proliferation (eFluor 670 dilution) of splenocytes stimulated with anti-CD3; format: cell-based, C57BL/6 mice; settings: anti-CD3, 72 h; DON 5 μM; 2-DG 0.6 mM; Metformin 1 mM
[9] = In vitro liver microsomal stability, pig microsomes
[10] = In vitro liver microsomal stability, human microsomes
[11] = tested on: arthritis in a mouse model; assay: Arthritis mouse model; settings: in vivo
[12] = tested on: Balb/c to C57BL/6 heart allograft; assay: Murine heterotopic heart transplantation (Balb/c to C57BL/6); design: species or system mice; settings: mouse, in vivo
Procedure: Murine heterotopic heart transplantation: BALB/c mice served as heart donors and C57BL/6 mice serve as allograft recipients. Either abdominal or cervical heterotopic heart transplantation was performed according to previously published methods (Corry et al. (1973) Transplantation 16(4):343-350; Oberhube et al. (2014) J Vis Exp 92:e50753). Functionality of the transplanted heart was monitored daily by palpation. Clinical rejection was defined by cessation of palpable heartbeats and confirmed by autopsy. Loss of graft function within 48 hrs of transplantation was considered as a technical failure, and animals in which this occurred were omitted from the analysis.
Finally, this metabolic reprogramming therapy with at least three metabolic reprogramming agents was employed in a Balb/c to C57BL/6 heart transplantation, which is a vascularized solid organ transplantation model. Strikingly, when recipient mice were treated with metabolic reprogramming therapy with at least three metabolic reprogramming agents, the grafted hearts continued beating for more than 100 days post-transplantation without rejection (FIG. 15F).

[13] = tested on: antigen-specific CD8+ T cells; format: in vivo, mice; settings: DON added to 2DG+Metformin therapy
[14] = tested on: Balb/c to C57BL/6 skin allograft; assay: Murine skin transplantation (Balb/c to C57BL/6); format: in vivo, mice
[15] = tested on: mouse model of Acute Respiratory Distress Syndrome (ARDS); assay: Mouse model of acute respiratory distress syndrome (ARDS); format: in vivo, mice; settings: treated on day 2 & 4
Excerpt: FIG. 17A, FIG. 17B, and FIG. 17C show targeting glutamine in a mouse model of acute respiratory distress syndrome (ARDS). Mice were challenged with Ips (FIG. 17A) to induce ARDS and treated with DON on day 2 & 4.

cerebral malaria = assay: Cerebral malaria in mice; format: in vivo; settings: treated on day 5 post infection and on day 6, every other day
Procedure: FIG. 19A and FIG. 19B show the targeting of glutamine metabolism to cure Cerebral malaria. Mice were treated on day 5 post infection and on day 6 (12 hours before subsequent death) with DON every other day.

[16] = tested on: antigen-specific CD4+ T cells; format: in vivo, mice
[17] = tested on: mouse model of Pulmonary Fibrosis; assay: Mouse model of pulmonary fibrosis (intratracheal bleomycin); design: species or system mice; settings: in vivo
Procedure: Mice were treated with intratracheal bleomycin to induce fibrosis.

[18] = tested on: pneumonitis in a mouse model; assay: Pneumonitis mouse model; settings: in vivo
glutaminase = assay: Glutaminase activity analysis of activated CD4+ T cells (radiolabeled assay); format: cell-based, mice; settings: anti-CD3/CD28, 24 hrs; DON 5 μM
Procedure: Glutaminase activity analysis: Glutaminase activity measurement was adapted from previously described protocols (Thomas et al. (2013) Biochemical and Biophysical Research Communications 438(2):243-248). Briefly, T cells were lysed in ice-cold potassium phosphate buffer (45 mM, pH 8.2) containing protease inhibitors (Roche, Complete Protease Inhibitor Cocktail, 1 tablet in 50 ml) and incubated with 3H-glutamine (0.03 μM, 0.91 μCi) for 90 min at room temperature. The reactions were carried out in 50 μl reaction volumes in a 96-well microplate. At the end of the reaction period, the assay was terminated upon the addition of imidazole buffer (20 mM, pH 7). 96-well spin columns packed with strong anion ion-exchange resin (Bio-Rad, AG® 1-X2 Resin, 200-400 mesh, chloride form) were used to separate the substrate and the reaction product. Unreacted ^3H-glutamine was removed by washing with imidazole buffer. ^3H-glutamate, the reaction product, was then eluted with 0.1 N HCl and analyzed for radioactivity using Perkin Elmer's TopCount instrument in conjunction with their 96-well LumaPlates. […]

CC(C)OC(=O)[C@H](CCC(=O)C=[N+]=[N-])NC(=O)O[C@H](C)OC(=O)C(C)(C)C (single isomer, unassigned) [Compound 14b]
plasma stability [1]: stable | plasma stability [2]: rapidly metabolized | plasma stability [3]: stable | plasma stability [4]: stable | CSF-to-plasma ratio of DON [5]: increased CSF-to-plasma ratios | amount of DON delivered to the CSF relative to DON [5]: substantially higher amounts of DON | plasma stability [6]: stable

CC(C)OC(=O)[C@H](CCC(=O)C=[N+]=[N-])NC(=O)OC(OC(=O)C(C)(C)C)c1ccccc1 (some centres unmarked) [Compound 47]
CSF-to-plasma ratio of DON [5]: increased CSF-to-plasma ratios | amount of DON delivered to the CSF relative to DON [5]: substantially higher amounts of DON

O=CC[C@@H](O)[C@H](O)[C@H](O)CO [Compound 2-DG, 2-deoxy-D-glucose]
IFN-γ (cytokine) production (CD4+ and CD8+ T cells [7]): inhibited T cell proliferation and cytokine production in a dose-dependent manner | ECAR (glycolytic flux) of activated T cells (CD4+ T cells): sharp decrease | OCR (OXPHOS) of activated T cells (CD4+ T cells): insignificant increase | T cell proliferation (CD4+ and CD8+ T cells [8]): inhibited T cell proliferation and cytokine production in a dose-dependent manner

CC(C)OC(=O)[C@H](CCC(=O)C=[N+]=[N-])NC(=O)[C@@H](N)Cc1c[nH]c2ccccc12 [Compound 38a]
liver microsomal stability [9]: moderate-high stability | liver microsomal stability [10]: moderate-high stability

[N-]=[N+]=CC(=O)CC[C@H](N)C(=O)O [DON, 6-Diazo-5-oxo-L-norleucine]
arthritis [11]: treated arthritis | heart transplant rejection [12]: able to prevent heart transplant rejection | CD8+ T cell effector function [13]: very potent inhibition | skin allograft rejection / graft survival ([14]; fully MHC-mismatched): prevents transplant rejection and prolongs skin graft survival | skin graft median survival time (MST) ([14]; treatment from day 0 until rejection, no treatment 11 days): 22 days | lung damage [15]: less lung damage | recovery (weight gain) [15]: more rapid recovery (weight gain) | death (survival) (cerebral malaria): prevent death at such a late stage of disease | CD4+ T cell effector function ([16]; DON added to 2DG+Metformin therapy): very potent inhibition | frequency of Foxp3+ CD4+ T cells (Tregs) in vivo ([16]; relative frequency): increased the relative frequency of regulatory T cells | lung damage [17]: markedly decreased lung damage | recruitment/generation of lung fibrocytes [17]: decrease in the recruitment/generation of lung fibrocytes | IFN-γ (cytokine) production (CD4+ and CD8+ T cells [7]): decreased | ECAR (glycolytic flux) of activated T cells (CD4+ T cells): did not have an obvious impact | OCR (OXPHOS) of activated T cells (CD4+ T cells): did not have an obvious impact | T cell proliferation (CD4+ and CD8+ T cells [8]): decreased | pneumonitis [18]: treated pneumonitis | glutaminase activity of activated T cells (glutaminase): significantly abrogated

CC(C)C[C@H](N)C(=O)N[C@@H](CCC(=O)C=[N+]=[N-])C(=O)OC(C)C [Compound 9]
liver microsomal stability [9]: moderate-high stability | liver microsomal stability [10]: moderate-high stability

CC(=O)N[C@@H](Cc1c[nH]c2ccccc12)C(=O)N[C@@H](CCC(=O)C=[N+]=[N-])C(=O)OC(C)C [Compound 60a]
liver microsomal stability [9]: moderate-high stability | liver microsomal stability [10]: moderate-high stability

CN(C)C(=N)N=C(N)N [metformin]
IFN-γ (cytokine) production (CD4+ and CD8+ T cells [7]): inhibited T cell proliferation and cytokine production in a dose-dependent manner | ECAR (glycolytic flux) of activated T cells (CD4+ T cells): increase | OCR (OXPHOS) of activated T cells (CD4+ T cells): marked suppression | T cell proliferation (CD4+ and CD8+ T cells [8]): inhibited T cell proliferation and cytokine production in a dose-dependent manner
